Counter-ions that a name gives are not always drawn.

In assay [1] the target is T1, human prostanoid EP1 receptor (Homo sapiens, UniProt P34995).
T1 construct: expressed in transfected cells; host or cells: CHO-K1 (membrane fraction)
T1 sequence (P34995 1-402): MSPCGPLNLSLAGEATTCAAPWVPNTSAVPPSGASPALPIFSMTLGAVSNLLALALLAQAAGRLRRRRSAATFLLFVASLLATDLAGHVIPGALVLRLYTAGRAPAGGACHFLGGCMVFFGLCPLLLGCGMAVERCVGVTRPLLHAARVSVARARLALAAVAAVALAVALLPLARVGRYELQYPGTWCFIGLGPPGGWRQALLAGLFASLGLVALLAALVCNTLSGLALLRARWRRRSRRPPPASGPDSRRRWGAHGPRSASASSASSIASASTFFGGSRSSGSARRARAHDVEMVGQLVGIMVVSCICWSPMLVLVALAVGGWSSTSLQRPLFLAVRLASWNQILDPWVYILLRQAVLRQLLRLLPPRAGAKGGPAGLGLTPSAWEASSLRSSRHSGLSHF
Briefly: Binding assay for the human prostanoid EP1 receptor (competition with [3H]-PGE2). To be noted: [3H]-PGE2 competition, human EP1, CHO-K1 membranes; averages of a number of experiments; read-out: pIC50 value (converted). As for the experimental part:
Competition assay using [^3H]-PGE2.
Compound potencies are determined using a radioligand binding assay. In this assay compound potencies are determined from their ability to compete with tritiated prostaglandin E2 ([^3H]-PGE2) for binding to the human EP1 receptor.
This assay utilises Chinese hamster ovary-K1 (CHO-K1) cells into which a stable vector containing the EP1 cDNA has previously been transfected. Cells are cultured in suitable flasks containing culture medium such as DMEM:F-12 supplemented with 10% v/v foetal calf serum, 2 mM L-glutamine, 0.25 mg/ml geneticin, 10 μg/ml puromycin and 10 μM indomethacin.
Cells are detached from the culture flasks by incubation in calcium and magnesium free phosphate buffered saline containing 1 mM disodium ethylenediaminetetraacetic acid (Na2EDTA) and 10 μM indomethacin for 5 min. The cells are isolated by centrifugation at 250×g for 5mins and suspended in an ice cold buffer such as 50 mM Tris, 1 mM Na2EDTA, 140 mM NaCl, 10 μM indomethacin (pH 7.4). The cells are homogenised using a Polytron tissue disrupter (2×10 s burst at full setting), centrifuged at 48,000×g for 20mins and the pellet containing the membrane fraction is washed (optional) three times by suspension and centrifugation at 48,000×g for 20mins. The final membrane pellet is suspended in an assay buffer such as 10 mM 2-[N-morpholino]ethanesulphonic acid, 1 mM Na2EDTA, 10 mM MgCl2 (pH 6). Aliquots are frozen at −80° C. until required.
For the binding assay the cell membranes, competing compounds and [^3H]-PGE2 (3 nM final assay concentration) are incubated in a final volume of 100 μl for 30 min at 30° C. All reagents are prepared in assay buffer. Reactions are terminated by rapid vacuum filtration over GF/B filters using a Brandell cell harvester. The filters are washed with ice cold assay buffer, dried and the radioactivity retained on the filters is measured by liquid scintillation counting in Packard TopCount scintillation counter.
The data are analysed using non linear curve fitting techniques to determine the concentration of compound producing 50% inhibition of specific binding (IC50).

The next assay addresses T2, human EP1 receptor (Homo sapiens, UniProt P34995).
T2 construct: expressed in transfected cells; host or cells: CHO-K1
T2 sequence (P34995 1-402): T1 sequence (P34995 1-402)
In words: human EP1 calcium mobilisation assay. It counts as cell-based. To be noted: for Ki: human EP1, CHO-K1 cells, antagonism of PGE2, averages of a number of experiments, read-out: functional pKi value (converted). As for the experimental part:
Briefly, the antagonist properties of compounds are assessed by their ability to inhibit the mobilisation of intracellular calcium ([Ca^2+]i) in response to activation of EP1 or EP3 receptors by the natural agonist hormone prostaglandin E2 (PGE2). Increasing concentrations of antagonist reduce the amount of calcium that a given concentration of PGE2 can mobilise. The net effect is to displace the PGE2 concentration-effect curve to higher concentrations of PGE2. The amount of calcium produced is assessed using a calcium-sensitive fluorescent dye such as Fluo-4, AM and a suitable instrument such as a Fluorimetric Imaging Plate Reader (FLIPR). Increasing amounts of [Ca^2+]i produced by receptor activation increase the amount of fluorescence produced by the dye and give rise to an increasing signal. The signal may be detected using the FLIPR instrument and the data generated may be analysed with suitable curve-fitting software.
The human EP1 or EP3 calcium mobilisation assay (hereafter referred to as ‘the calcium assay’) utilises Chinese hamster ovary-K1 (CHO-K1) cells into which a stable (pCIN; BioTechniques 20 (1996): 102-110) vector containing either EP1 or EP3 cDNA has previously been transfected. Cells are cultured in suitable flasks containing culture medium such as DMEM:F-12 supplemented with 10% v/v foetal calf serum, 2 mM L-glutamine, 0.25 mg/ml geneticin, 100 μM flurbiprofen and 10 μg/ml puromycin.
For assay, cells are harvested using a proprietary reagent that dislodges cells such as Versene. Cells are re-suspended in a suitable quantity of fresh culture media for introduction into a 384-well plate. Following incubation for 24 hours at 37° C. the culture media is replaced with a medium containing Fluo-4 and the detergent pluronic acid, and a further incubation takes place. Concentrations of compounds are then added to the plate in order to construct concentration-effect curves. This may be performed on the FLIPR in order to assess the agonist properties of the compounds. Concentrations of PGE2 are then added to the plate in order to assess the antagonist properties of the compounds.
The data so generated may be analysed by means of a computerised curve-fitting routine. The concentration of compound that elicits a half-maximal inhibition of the calcium mobilisation induced by PGE2 (pIC50) may then be estimated.
In general terms: A change in cytosolic calcium serves as a functional read-out for many receptors and channels.

`O=C(Nc1cccc(Cc2cc(Cl)ccc2OCc2ccccc2)n1)C1CCCCC1` [Example 4, N-[6-({5-Chloro-2-[(phenylmethyl)oxy]phenyl}methyl)-2-pyridinyl]cyclohexanecarboxamide]: the IC50 in assay [1] is at most 100 nM. Also, the Ki on human EP1 receptor is at most 316 nM.

Consider `CC(C)(C)CC(=O)Nc1cccc(Cc2cc(Cl)ccc2OCc2ccccc2)n1` [Example 5, N-[6-({5-Chloro-2-[(phenylmethyl)oxy]phenyl}methyl)-2-pyridinyl]-3,3-dimethylbutanamide], for which the IC50 in assay [1] is at most 100 nM. The Ki on human EP1 receptor is at most 316 nM.

For the compound `O=C(Nc1ccc(CO)cc1)c1cccc(Cc2cc(Cl)ccc2OCc2ccc(Cl)cc2F)n1` [Example 13, 6-[(5-Chloro-2-{[(4-chloro-2-fluorophenyl)methyl]oxy}phenyl)methyl]-N-[4-(hydroxymethyl)phenyl]-2-pyridinecarboxamide], the IC50 in assay [1] is at most 100 nM. For the same compound, on human EP1 receptor, the Ki is at most 10000 nM.

Consider `Fc1cc(Cl)ccc1COc1ccc(Cl)cc1Cc1cccc(-c2nc3ccccc3[nH]2)n1` [Example 19, 2-{6-[(5-Chloro-2-[([(4-chloro-2-fluorophenyl)methyl]oxy}phenyl)methyl]-2-pyridinyl]-1H-benzimidazole Hydrochloride], for which, in assay [1], the IC50 was at most 100 nM. Moreover, on human EP1 receptor, the Ki was at most 316 nM.

Take `Fc1cc(Cl)ccc1COc1ccc(Cl)cc1Cc1cccc(-c2nc3cncnc3[nH]2)n1` [Example 20, 8-{6-[(5-Chloro-2-{[(4-chloro-2-fluorophenyl)methyl]oxy}phenyl)methyl]-2-pyridinyl}-1H-purinehydrochloride]: the IC50 in assay [1] is at most 100 nM. Also, on human EP1 receptor, the Ki is at most 316 nM.

As for `CC(C)COc1ccc(Cl)cc1Cc1cccc(-c2nc3nccnc3[nH]2)n1` [Example 22, 2-[6-({5-Chloro-2-[(2-methylpropyl)oxy]phenyl}methyl)-2-pyridinyl]-1H-imidazo[4,5-b]pyrazine hydrochloride], the IC50 in assay [1] was at most 100 nM. In addition, the Ki on human EP1 receptor was at most 316 nM.

For `CN(C)c1ccc2nc(-c3cccc(Cc4cc(Cl)ccc4OCc4ccccc4)n3)[nH]c2c1` [Example 27, 2-[6-({5-Chloro-2-[(phenylmethyl)oxy]phenyl}methyl)-2-pyridinyl]-N,N-dimethyl-1H-benzimidazol-5-aminehydrochloride], the IC50 in assay [1] is at most 100 nM. Also, the Ki on human EP1 receptor was at most 10000 nM.

Turning to `Clc1ccc(OCc2ccccc2)c(Cc2cccc(-c3nc4ccc(N5CCOCC5)cc4[nH]3)n2)c1` [Example 28, 2-[6-({5-Chloro-2-[(phenylmethyl)oxy]phenyl}methyl)-2-pyridinyl]-5-(4-morpholinyl)-1H-benzimidazolehydrochloride], the IC50 in assay [1] was at most 100 nM. The Ki at human EP1 receptor was at most 316 nM.

Consider `Cc1ccc2[nH]c(-c3cccc(Cc4cc(Cl)ccc4OCc4ccccc4)n3)nc2c1` [Example 29, 2-[6-({5-Chloro-2-[(phenylmethyl)oxy]phenyl}methyl)-2-pyridinyl]-5-methyl-1H-benzimidazole Hydrochloride], for which the IC50 in assay [1] is at most 100 nM. Besides, the Ki at human EP1 receptor is at most 10000 nM.

For the compound `Clc1ccc(OCc2ccccc2)c(Cc2cccc(-c3nc4ncccc4[nH]3)n2)c1` [Example 30, 2-[6-({5-Chloro-2-[(phenylmethyl)oxy]phenyl}methyl)-2-pyridinyl]-1H-imidazo[4,5-b]pyridinehydrochloride], the IC50 in assay [1] was at most 100 nM. Also, the Ki on human EP1 receptor is at most 316 nM.

For the compound `COc1ccc2[nH]c(-c3cccc(Cc4cc(Cl)ccc4OCc4ccccc4)n3)nc2c1` [Example 31, 2-[6-({5-Chloro-2-[(phenylmethyl)oxy]phenyl}methyl)-2-pyridinyl]-5-(methyloxy)-1H-benzimidazolehydrochloride], the IC50 in assay [1] is at most 100 nM. The Ki at human EP1 receptor is at most 316 nM.

Turning to `Clc1ccc(OCc2ccccc2)c(Cc2cccc(-c3nc4ccccc4[nH]3)n2)c1` [Example 34, 2-[6-({5-Chloro-2-[(phenylmethyl)oxy]phenyl}methyl)-2-pyridinyl]-1H-benzimidazole hydrochloride], the IC50 in assay [1] is at most 100 nM. Further, the Ki on human EP1 receptor was at most 316 nM.

Regarding `Clc1ccc(OCc2ccccc2)c(Cc2cccc(-c3nc4cc(Cl)ccc4[nH]3)n2)c1` [Example 35, 5-Chloro-2-[6-({5-Chloro-2-[(phenylmethyl)oxy]phenyl}methyl)-2-pyridinyl]-1H-benzimidazole hydrochloride], the IC50 in assay [1] was at most 100 nM. Besides, the Ki at human EP1 receptor is at most 316 nM.

For `Fc1ccc2[nH]c(-c3cccc(Cc4cc(Cl)ccc4OCc4ccccc4)n3)nc2c1` [Example 36, 2-[6-({5-Chloro-2-[(phenylmethyl)oxy]phenyl}methyl)-2-pyridinyl]-5-fluoro-1H-benzimidazolehydrochloride], the IC50 in assay [1] was at most 100 nM. Further, on human EP1 receptor, the Ki was at most 316 nM.

Take `CC(C)COc1ccc(Cl)cc1Cc1cccc(-c2nc3ccccc3[nH]2)n1` [Example 44, 2-[6-({5-Chloro-2-[(2-methylpropyl)oxy]phenyl}methyl)-2-pyridinyl]-1H-benzimidazole]: the IC50 in assay [1] was at most 100 nM. Besides, at human EP1 receptor, the Ki is at most 316 nM.

On to `CNCc1ccc2nc(-c3cccc(Cc4cc(Cl)ccc4OCC(C)C)n3)[nH]c2c1` [Example 52, ({2-[6-({5-Chloro-2-[(2-methylpropyl)oxy]phenyl}methyl)-2-pyridinyl]-1H-benzimidazol-5-yl}methyl)methylaminehydrochloride], for which the IC50 in assay [1] is at most 100 nM. The Ki on human EP1 receptor was at most 316 nM.

On to `CN(C)Cc1ccc(NC(=O)c2cccc(Cc3cc(Cl)ccc3OCc3ccc(Cl)cc3F)n2)cc1` [Example 53, 6-[(5-Chloro-2-{[(4-chloro-2-fluorophenyl)methy]oxy}phenyl)methyl]-N-{4-[(dimethylamino)methyl]phenyl}-2-pyridinecarboxamide], for which the IC50 in assay [1] is at most 100 nM.

Regarding `CN(CCC#N)Cc1ccc(NC(=O)c2cccc(Cc3cc(Cl)ccc3OCc3ccc(Cl)cc3F)n2)cc1` [Example 57, 6-[(5-Chloro-2-{[(4-chloro-2-fluorophenyl)methyl]oxy}phenyl)methyl]-N-(4-{[(2-cyanoethyl)(methyl)amino]methyl}phenyl)-2-pyridinecarboxamide], the IC50 in assay [1] was at most 100 nM. Further, the Ki on human EP1 receptor is at most 10000 nM.

On to `CN(C)Cc1ccc2nc(-c3cccc(Cc4cc(Cl)ccc4OCc4ccc(Cl)cc4F)n3)[nH]c2c1` [Example 58, [(2-{6-[(5-Chloro-2-{[(4-chloro-2-fluorophenyl)methyl]oxy}phenyl)methyl]-2-pyridinyl}-1H-benzimidazol-5-yl)methyl]dimethylamine Hydrochloride], for which the IC50 in assay [1] was at most 100 nM; on human EP1 receptor (human EP1 calcium mobilisation assay, read-out: pIC50 values (converted)), over 10000 nM.

The record behind these values is patent publication US20090099177A1, “PYRIDYL COMPOUNDS” (priority 2006, published 2009).
